Source: ChEMBL document CHEMBL1201862, “PubChem BioAssay data set” (2004)
Activity calls are given as the source filed them.

Tests used:
[1] = Luminescence Cell-Based Dose Confirmation HTS to Identify Activators of 5'UTR Stem-Loop Driven Alpha-Synuclein mRNA Translation in H4 Neuroglioblastoma Cells. [Related pubchem assays: 1829 (Project Summary), 1814 (Primary HTS)]; assay type: functional
[2] = Luminescence Cell-Based Dose Response HTS to Identify Activators of Luciferase Translation or Activity in H4 […] Cells. [Related pubchem assays: 1829 (Project Summary), 1814 (Primary HTS)]; assay type: functional
Galanin receptor type 2 = Galanin receptor type 2 (Homo sapiens, UniProt O43603); assay: Dose Response cell-based high-throughput screening assay to identify antagonists of galanin receptor 2 (GALR2). [Related pubchem assays: 828, 866 ]; assay type: functional
Sequence of Galanin receptor type 2 (O43603 whole entry): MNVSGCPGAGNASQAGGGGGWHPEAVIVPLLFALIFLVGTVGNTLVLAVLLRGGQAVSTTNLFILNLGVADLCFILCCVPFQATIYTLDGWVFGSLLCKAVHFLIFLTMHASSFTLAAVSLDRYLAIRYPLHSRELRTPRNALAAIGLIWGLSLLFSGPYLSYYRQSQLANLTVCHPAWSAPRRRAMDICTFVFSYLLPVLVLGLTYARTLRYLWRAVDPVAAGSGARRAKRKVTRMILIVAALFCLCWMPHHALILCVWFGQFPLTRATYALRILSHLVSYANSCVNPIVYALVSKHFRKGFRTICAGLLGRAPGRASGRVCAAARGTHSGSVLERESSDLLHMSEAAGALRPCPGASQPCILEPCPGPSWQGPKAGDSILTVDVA

H4 = assay: Luminescence Cell-Based Dose Response HTS to Identify Activators of 5'UTR Stem-Loop Driven Prion Protein mRNA Translation in H4 Neuroglioblastoma Cells. [Related pubchem assays: 1829 (Project Summary), 1814 (Primary HTS)]; assay type: functional; conditions: Homo sapiens
BJ [3] = assay: cytotoxicity toward BJ-TERT fibroblasts, dose response, cell-based, RAS-independent, luminescence (AID 1933); assay type: functional; conditions: Homo sapiens
BJ [4] = assay: cells; assay type: functional, cell-based; conditions: Homo sapiens
[5] = growth suppression of PTEN-null colon cells, dose response, cell-based, HCT116 PTEN knockout (AID 1047); assay type: functional;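 also: HCT116 colon tumor cells with PTEN knocked out; cells exposed to compound for 60 hours before readout; potency for loss of cell viability measured by luminescence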
[6] = Luminescence Cell-Based Dose Confirmation HTS to Identify Inhibitors of Polyadenylation.; assay type: functional
[7] = growth suppression of beta-catenin-knockout colon cells, dose response, cell-based, HCT116, human colon tumor (AID 1045); assay type: functional;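 also: HCT116 colon tumor cells with beta catenin knocked out; cells exposed to compound for 60 hours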
BJ [8] = assay: cytotoxicity toward BJ-TERT-LT-ST fibroblasts, dose response, cell-based, RAS-independent, luminescence (AID 1935); assay type: functional; conditions: Homo sapiens;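 also: BJ fibroblasts immortalized with TERT plus LT and ST oncogenes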
[9] = cytotoxicity toward DRD oncogenic fibroblasts, dose response, cell-based, non-viral oncogenic, luminescence (AID 1934); assay type: functional; conditions: Homo sapiens
INS1 = assay: beta cell apoptosis inhibitors, cytokine rescue, dose response, luminescence, retest (AID 449756); assay type: functional, cell-based; conditions: Rattus norvegicus;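 also: cell death triggered by IL-1 beta plus TNF-alpha plus IFN-gamma mixture; protective hits raise ATP signal compared with cytokine alone wells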
[10] = target: Heat shock protein HSP 90-alpha (Homo sapiens, UniProt P07900); assay: Luminescence-based dose response biochemical high throughput screening assay for inhibitors of the Heat Shock Protein 90 (HSP90). [Related pubchem assays: 1831 (Summary AID.), 1846 (Confirmation screen.), 1789 (Primary screen.)]
[11] = target: Glucose-6-phosphate 1-dehydrogenase (Homo sapiens, UniProt P11413); assay: human G6PD enzyme inhibitors, dose response, selectivity assay for P. falciparum G6PD inhibitor project, biochemical, fluorescence (AID 504792); assay type: functional
Sequence of Glucose-6-phosphate 1-dehydrogenase (P11413 whole entry): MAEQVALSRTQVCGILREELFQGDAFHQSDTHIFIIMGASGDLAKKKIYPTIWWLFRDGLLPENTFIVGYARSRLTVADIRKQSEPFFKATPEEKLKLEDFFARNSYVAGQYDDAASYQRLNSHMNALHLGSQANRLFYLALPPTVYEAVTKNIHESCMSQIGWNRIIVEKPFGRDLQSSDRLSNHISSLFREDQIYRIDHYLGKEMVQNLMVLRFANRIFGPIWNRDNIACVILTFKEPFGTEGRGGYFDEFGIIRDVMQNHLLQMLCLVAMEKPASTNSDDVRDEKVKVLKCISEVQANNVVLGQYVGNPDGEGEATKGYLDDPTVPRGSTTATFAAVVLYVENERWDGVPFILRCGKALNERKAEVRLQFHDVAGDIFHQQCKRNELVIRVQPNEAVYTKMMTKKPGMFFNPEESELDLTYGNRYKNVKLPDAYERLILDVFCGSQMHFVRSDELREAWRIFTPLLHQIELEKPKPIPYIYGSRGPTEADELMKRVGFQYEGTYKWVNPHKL

Protein skinhead-1 = target: T1, Protein skinhead-1 (Caenorhabditis elegans, UniProt P34707); assay type: functional
T1 sequence (P34707 whole entry): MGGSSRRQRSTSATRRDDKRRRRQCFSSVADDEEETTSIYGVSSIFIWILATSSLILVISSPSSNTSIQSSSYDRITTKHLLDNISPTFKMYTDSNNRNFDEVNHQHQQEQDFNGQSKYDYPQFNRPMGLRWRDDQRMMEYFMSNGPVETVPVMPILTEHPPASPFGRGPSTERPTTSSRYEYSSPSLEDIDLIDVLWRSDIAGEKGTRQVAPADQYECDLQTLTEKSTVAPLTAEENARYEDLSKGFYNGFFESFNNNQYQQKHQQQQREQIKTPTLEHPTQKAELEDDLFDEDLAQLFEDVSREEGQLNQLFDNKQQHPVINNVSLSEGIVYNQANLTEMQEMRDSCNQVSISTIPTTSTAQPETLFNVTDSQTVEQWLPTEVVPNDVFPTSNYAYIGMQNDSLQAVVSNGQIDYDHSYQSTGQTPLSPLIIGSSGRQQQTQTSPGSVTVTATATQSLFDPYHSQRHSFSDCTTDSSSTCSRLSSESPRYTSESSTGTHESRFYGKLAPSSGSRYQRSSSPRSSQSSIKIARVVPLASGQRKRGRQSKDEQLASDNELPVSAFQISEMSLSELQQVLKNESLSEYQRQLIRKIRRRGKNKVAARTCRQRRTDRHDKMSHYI

[12] = target: Mitogen-activated protein kinase 10 (Homo sapiens, UniProt P53779); assay: Dose response biochemical screening assay for inhibitors of c-Jun N-Terminal Kinase 3 (JNK3). [Related pubchem assays: 746 ]
Sequence of Mitogen-activated protein kinase 10 (P53779 whole entry): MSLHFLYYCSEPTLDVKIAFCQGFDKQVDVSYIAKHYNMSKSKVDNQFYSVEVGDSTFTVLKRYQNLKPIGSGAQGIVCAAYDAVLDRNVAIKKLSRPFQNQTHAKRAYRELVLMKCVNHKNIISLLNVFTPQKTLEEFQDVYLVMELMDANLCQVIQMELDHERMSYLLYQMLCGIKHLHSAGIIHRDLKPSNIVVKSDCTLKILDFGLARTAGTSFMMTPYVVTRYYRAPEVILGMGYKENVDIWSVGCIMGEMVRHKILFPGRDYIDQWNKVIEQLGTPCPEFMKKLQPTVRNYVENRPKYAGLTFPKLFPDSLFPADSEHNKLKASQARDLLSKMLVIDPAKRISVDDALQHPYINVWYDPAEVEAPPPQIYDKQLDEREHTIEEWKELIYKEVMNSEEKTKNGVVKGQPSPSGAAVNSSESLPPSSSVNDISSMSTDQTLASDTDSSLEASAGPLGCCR

HEK293 [13] = assay: cells; conditions: Homo sapiens
HEK293 [14] = assay: cells; conditions: Homo sapiens; remark: listed apart in the source
[15] = target: Transitional endoplasmic reticulum ATPase (Homo sapiens, UniProt P55072, C522A); assay: Luminescence counterscreen assay for p97 inhibitors: dose response biochemical high throughput screening assay to identify inhibitors of the C522A mutant p97 ATPase: synthesized compounds. [Related pubchem assays: 1481, 1517, 1551 ]
Sequence of Transitional endoplasmic reticulum ATPase (Homo sapiens, UniProt P55072, C522A) (P55072 2-806 C522A limits assumed): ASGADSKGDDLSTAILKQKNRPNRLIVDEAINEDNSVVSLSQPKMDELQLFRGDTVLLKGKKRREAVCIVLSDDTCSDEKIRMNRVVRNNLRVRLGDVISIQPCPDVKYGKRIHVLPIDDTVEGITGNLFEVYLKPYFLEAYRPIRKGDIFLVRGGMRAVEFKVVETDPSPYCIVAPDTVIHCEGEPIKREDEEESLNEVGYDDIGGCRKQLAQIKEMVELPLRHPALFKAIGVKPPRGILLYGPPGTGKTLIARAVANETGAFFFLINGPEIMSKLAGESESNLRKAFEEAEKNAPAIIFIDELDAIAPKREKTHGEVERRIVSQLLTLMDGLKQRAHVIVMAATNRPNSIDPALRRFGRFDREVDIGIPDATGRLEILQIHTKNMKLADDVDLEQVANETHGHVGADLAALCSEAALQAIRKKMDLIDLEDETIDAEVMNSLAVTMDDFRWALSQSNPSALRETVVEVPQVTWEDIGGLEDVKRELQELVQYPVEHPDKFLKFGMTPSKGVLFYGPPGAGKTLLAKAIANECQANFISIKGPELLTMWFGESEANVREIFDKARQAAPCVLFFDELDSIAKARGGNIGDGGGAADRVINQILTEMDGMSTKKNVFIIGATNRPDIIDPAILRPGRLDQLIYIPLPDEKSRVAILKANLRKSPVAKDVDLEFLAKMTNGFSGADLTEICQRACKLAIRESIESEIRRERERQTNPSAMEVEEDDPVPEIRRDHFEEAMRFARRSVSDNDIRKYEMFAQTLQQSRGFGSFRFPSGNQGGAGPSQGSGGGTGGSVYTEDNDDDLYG

[16] = target: Transitional endoplasmic reticulum ATPase (Homo sapiens, UniProt P55072); assay: Luminescence dose response biochemical high throughput screening assay for inhibitors of the p97 ATPase: synthesized compounds. [Related pubchem assays: 1481, 1517 ]
Sequence of Transitional endoplasmic reticulum ATPase (Homo sapiens, UniProt P55072) (P55072 whole entry): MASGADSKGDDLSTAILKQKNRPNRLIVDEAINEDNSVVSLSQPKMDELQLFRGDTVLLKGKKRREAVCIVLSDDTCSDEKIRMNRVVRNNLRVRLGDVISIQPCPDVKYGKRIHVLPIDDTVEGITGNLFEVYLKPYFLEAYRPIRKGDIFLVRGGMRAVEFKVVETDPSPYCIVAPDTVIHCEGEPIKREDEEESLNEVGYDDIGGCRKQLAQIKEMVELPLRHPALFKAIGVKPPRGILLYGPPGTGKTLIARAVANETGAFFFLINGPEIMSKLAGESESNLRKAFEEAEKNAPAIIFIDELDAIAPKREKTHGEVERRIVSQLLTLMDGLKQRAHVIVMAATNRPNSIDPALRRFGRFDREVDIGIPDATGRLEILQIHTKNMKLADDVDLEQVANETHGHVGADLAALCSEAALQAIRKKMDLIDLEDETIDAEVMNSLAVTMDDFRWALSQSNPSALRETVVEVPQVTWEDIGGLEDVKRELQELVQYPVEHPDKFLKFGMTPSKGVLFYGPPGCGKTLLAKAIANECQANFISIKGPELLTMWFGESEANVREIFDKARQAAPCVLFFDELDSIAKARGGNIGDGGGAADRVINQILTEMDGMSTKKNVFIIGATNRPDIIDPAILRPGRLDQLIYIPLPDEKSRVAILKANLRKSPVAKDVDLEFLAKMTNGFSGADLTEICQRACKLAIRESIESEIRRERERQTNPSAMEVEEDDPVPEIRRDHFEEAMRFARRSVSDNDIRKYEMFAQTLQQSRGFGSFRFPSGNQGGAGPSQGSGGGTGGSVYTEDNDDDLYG

[17] = target: Protein-tyrosine kinase 2-beta (Homo sapiens, UniProt Q14289);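 also: potency of inhibitors of PYK2 kinase phosphorylation of poly-GT substrate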
Sequence of Protein-tyrosine kinase 2-beta (Q14289 whole entry): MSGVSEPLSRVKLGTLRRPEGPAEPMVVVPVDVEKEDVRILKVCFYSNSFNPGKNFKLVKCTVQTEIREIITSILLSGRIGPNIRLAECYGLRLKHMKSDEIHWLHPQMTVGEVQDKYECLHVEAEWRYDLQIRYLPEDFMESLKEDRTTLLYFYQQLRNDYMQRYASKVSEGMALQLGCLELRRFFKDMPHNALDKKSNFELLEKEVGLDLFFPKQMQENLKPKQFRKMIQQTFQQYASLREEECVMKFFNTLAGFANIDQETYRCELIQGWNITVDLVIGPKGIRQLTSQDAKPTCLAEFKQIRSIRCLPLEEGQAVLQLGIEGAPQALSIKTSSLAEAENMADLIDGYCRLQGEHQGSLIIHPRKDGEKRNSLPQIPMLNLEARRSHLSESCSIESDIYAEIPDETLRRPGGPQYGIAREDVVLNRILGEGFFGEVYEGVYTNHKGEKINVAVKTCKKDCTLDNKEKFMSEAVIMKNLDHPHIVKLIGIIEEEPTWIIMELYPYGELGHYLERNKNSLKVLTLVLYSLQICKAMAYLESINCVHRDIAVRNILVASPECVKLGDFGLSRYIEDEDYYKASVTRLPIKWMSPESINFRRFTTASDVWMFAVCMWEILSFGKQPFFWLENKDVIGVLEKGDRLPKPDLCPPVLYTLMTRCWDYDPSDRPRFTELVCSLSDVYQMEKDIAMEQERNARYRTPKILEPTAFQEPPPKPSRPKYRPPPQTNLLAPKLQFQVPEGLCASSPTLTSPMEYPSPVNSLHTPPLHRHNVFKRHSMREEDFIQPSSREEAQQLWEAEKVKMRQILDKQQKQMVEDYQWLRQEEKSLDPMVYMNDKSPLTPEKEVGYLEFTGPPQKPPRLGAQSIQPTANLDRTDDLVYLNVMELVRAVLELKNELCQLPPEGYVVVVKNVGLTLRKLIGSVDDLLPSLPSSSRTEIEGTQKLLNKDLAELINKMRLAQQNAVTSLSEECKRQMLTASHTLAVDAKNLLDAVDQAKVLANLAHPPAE

NADPH oxidase 1 = NADPH oxidase 1 (Homo sapiens, UniProt Q9Y5S8); assay: Late-stage luminescence-based cell-based dose response assay to identify inhibitors of NADPH oxidase 1 (NOX1): Synthesized analogs 2.; assay type: functional
[18] = target: Aryl hydrocarbon receptor (Homo sapiens, UniProt P35869); assay: Luminescence-based cell-based high throughput dose response assay for activators of the Aryl Hydrocarbon Receptor (AHR). [Related pubchem assays: 2796 (Primary screen (AHR activators in singlicate)), 2845 (Confirmation screen (AHR activators in triplicate)), 434939 (Counterscreen (PXR activators in triplicate)), 2804 (Summary (AHR activators))]; assay type: ADME
Sequence of Aryl hydrocarbon receptor (P35869 whole entry): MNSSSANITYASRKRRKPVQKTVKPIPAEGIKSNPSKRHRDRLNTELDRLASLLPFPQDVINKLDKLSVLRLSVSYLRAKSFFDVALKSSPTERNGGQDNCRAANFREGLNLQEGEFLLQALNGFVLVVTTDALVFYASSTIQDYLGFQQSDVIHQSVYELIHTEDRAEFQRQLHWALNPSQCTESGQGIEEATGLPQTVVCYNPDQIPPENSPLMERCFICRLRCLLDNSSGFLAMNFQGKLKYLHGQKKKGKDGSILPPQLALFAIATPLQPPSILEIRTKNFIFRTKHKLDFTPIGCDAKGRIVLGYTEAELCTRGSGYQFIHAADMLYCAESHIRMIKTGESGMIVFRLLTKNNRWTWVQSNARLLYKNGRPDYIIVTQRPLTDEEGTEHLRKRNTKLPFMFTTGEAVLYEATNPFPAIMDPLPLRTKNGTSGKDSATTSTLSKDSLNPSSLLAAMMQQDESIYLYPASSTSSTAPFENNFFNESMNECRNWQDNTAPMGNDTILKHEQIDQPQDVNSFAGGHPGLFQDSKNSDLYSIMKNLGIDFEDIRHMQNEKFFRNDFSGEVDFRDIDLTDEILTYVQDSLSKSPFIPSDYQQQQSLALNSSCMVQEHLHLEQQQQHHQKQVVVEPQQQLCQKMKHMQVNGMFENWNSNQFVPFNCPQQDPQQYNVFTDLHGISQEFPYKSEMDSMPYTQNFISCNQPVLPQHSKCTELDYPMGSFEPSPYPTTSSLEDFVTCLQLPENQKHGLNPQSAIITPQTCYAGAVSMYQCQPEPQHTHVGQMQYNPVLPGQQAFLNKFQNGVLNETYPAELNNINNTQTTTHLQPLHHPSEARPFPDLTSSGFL

[19] = M. tuberculosis H37Rv growth inhibitors, H37Rv strain (AID 1626); assay type: functional

For `N#C/C(=C\c1cccs1)c1nc2ccccc2[nH]1`, the EC50 [1] was 2.67 µM (active), the EC50 [2] was 26.6 µM (active) and the IC50 (Galanin receptor type 2) was > 42 µM (not active). For the same molecule, the EC50 (H4) was 15.8 µM (active).

In the case of `N#C/C(=C\c1ccc([N+](=O)[O-])o1)c1nc2ccccc2[nH]1`, the EC50 (BJ [3]) is reported as 2.27 µM (inconclusive), the EC50 (BJ [4]) is reported as > 150 µM (inconclusive) and the EC50 [5] is reported as 0.985 µM (active). For the same molecule, the EC50 [6] was 3.64 µM (active), the EC50 [7] was 1.01 µM (active) and the EC50 (BJ [8]) was > 150 µM (inconclusive). For the same molecule, the EC50 [9] was 5.9 µM (inconclusive) and the AC50 (INS1) was 3.02 µM (active).

With `[O-]/[N+](=C\c1ccco1)c1ccc(Cl)cc1` the IC50 [10] was 4.31 µM (active), the IC50 [11] was 27.6 µM (inactive) and the IC50 (Protein skinhead-1) was > 100 µM (inactive).

For `COc1cc(C2NC(=O)NC(C)=C2C(=O)OCc2ccccc2)ccc1O` (centres undefined), the IC50 [12] was > 93.1 µM (not active), the EC50 (HEK293 [13]) was > 59.6 µM (inactive) and the EC50 (HEK293 [14]) was > 59.6 µM (inactive).

For `N#CC(C#N)=Cc1c2ccccc2cc2ccccc12`, the IC50 [15] was > 50 µM (not active) and the IC50 [16] was > 50 µM (not active).

In the case of `CCOC(=O)C1=C(c2ccccc2)OC(N)=C(C#N)C1C1CCCCC1` (centres undefined), the IC50 [17] is reported as > 69.5 µM (not active).

In the case of `CN1c2ccccc2Sc2cc(N=[N+]=[N-])ccc21`, the IC50 (NADPH oxidase 1) is reported as 0.73 µM (active).

In the case of `CCCCc1cc2c(c(NC(C)=O)n1)c(=O)oc1ccccc12`, the EC50 [18] is reported as 3.25 µM (active).

In the case of `C=CCn1c(COc2ccc3c(c2)CCCC3)nnc1SCC(=O)Nc1cccc(SC)c1`, the IC50 [19] is reported as > 100 µM (active).
